Test results as given in ChEMBL document CHEMBL3885881, “DrugMatrix”.

Species on record: Rattus norvegicus
Test: DrugMatrix - Regimen: Daily Repeat
Assay type: toxicity, organism-based, Sprague-Dawley
Parameters: regimen Daily Repeat, gender Male, age 6-8 weeks
Conditions: in vivo, po, route oral GAVAGE, vehicle .5 % CMC; for BASOPHIL / EOSINOPHIL / ERYTHROCYTE COUNT / HEMATOCRIT / LEUKOCYTE COUNT / LYMPHOCYTE / MEAN CORPUSCULAR HEMOGLOBIN / MEAN CORPUSCULAR HEMOGLOBIN CONCENTRATION / MEAN CORPUSCULAR VOLUME / MONOCYTE / NEUTROPHIL / PLATELET COUNT: tissue Blood; for ALANINE AMINOTRANSFERASE / ALBUMIN / ALKALINE PHOSPHATASE / ASPARTATE AMINOTRANSFERASE / BLOOD UREA NITROGEN / CHLORIDE / CHOLESTEROL / CREATININE / GLUCOSE / PHOSPHORUS / POTASSIUM / TOTAL BILIRUBIN / TOTAL PROTEIN: tissue Plasma
[1] = 0 mg/kg, 72 h, dose level Control, time 3 day
[2] = 0 mg/kg, 120 h, dose level Control, time 5 day
[3] = 10 mg/kg, 72 h, dose level Low, time 3 day
[4] = 10 mg/kg, 120 h, dose level Low, time 5 day
[5] = 52 mg/kg, 72 h, dose level High, time 3 day
[6] = 52 mg/kg, 120 h, dose level High, time 5 day

For CNCCC(Oc1ccc(C(F)(F)F)cc1)c1ccccc1 (configuration not stated) [FLUOXETINE], the BASOPHIL [1] was 0%, the EOSINOPHIL [1] was 0% and the “ERYTHROCYTE COUNT” value [1] was 6.34 x10E6/uL. The HEMATOCRIT [1] was 37.62%, the “LEUKOCYTE COUNT” value [1] was 11.18 x10E3/uL and the LYMPHOCYTE [1] was 87.5%. The “MEAN CORPUSCULAR HEMOGLOBIN” value [1] was 23.48 pg, the “MEAN CORPUSCULAR HEMOGLOBIN CONCENTRATION” value [1] was 39.5 G/DL and the “MEAN CORPUSCULAR VOLUME” value [1] was 59.45 fL. For the same compound, the MONOCYTE [1] was 1.67%, the NEUTROPHIL [1] was 10.83% and the “PLATELET COUNT” value [1] was 1074.83 x10E3/uL. For the same compound, the “ALANINE AMINOTRANSFERASE” value [1] was 36.5 u/L, the ALBUMIN [1] was 3.9 G/DL and the “ALKALINE PHOSPHATASE” value [1] was 370.17 u/L. For the same compound, the “ASPARTATE AMINOTRANSFERASE” value [1] was 63.17 u/L, the “BLOOD UREA NITROGEN” value [1] was 16.83 mg/dL and the CHLORIDE [1] was 99.33 MEQ/L. For the same compound, the CHOLESTEROL [1] was 64.33 mg/dL, the CREATININE [1] was 0.55 mg/dL and the GLUCOSE [1] was 173.5 mg/dL. The PHOSPHORUS [1] was 10.08 mg/dL, the POTASSIUM [1] was 6.23 MEQ/L and the “TOTAL BILIRUBIN” value [1] was 0.52 mg/dL. The “TOTAL PROTEIN” value [1] was 6.35 G/DL, the BASOPHIL [2] was 0% and the EOSINOPHIL [2] was 0.17%. For the same compound, the “ERYTHROCYTE COUNT” value [2] was 6.12 x10E6/uL, the HEMATOCRIT [2] was 37.08% and the “LEUKOCYTE COUNT” value [2] was 11.87 x10E3/uL. The LYMPHOCYTE [2] was 83.33%, the “MEAN CORPUSCULAR HEMOGLOBIN” value [2] was 24.25 pg and the “MEAN CORPUSCULAR HEMOGLOBIN CONCENTRATION” value [2] was 39.97 G/DL. The “MEAN CORPUSCULAR VOLUME” value [2] was 60.65 fL, the MONOCYTE [2] was 1.5% and the NEUTROPHIL [2] was 15%. The “PLATELET COUNT” value [2] was 1042.83 x10E3/uL, the “ALANINE AMINOTRANSFERASE” value [2] was 46 u/L and the ALBUMIN [2] was 3.82 G/DL. For the same compound, the “ALKALINE PHOSPHATASE” value [2] was 369.5 u/L, the “ASPARTATE AMINOTRANSFERASE” value [2] was 65 u/L and the “BLOOD UREA NITROGEN” value [2] was 16.33 mg/dL. It also gave a CHLORIDE [2] of 100.67 MEQ/L, a CHOLESTEROL [2] of 57.17 mg/dL and a CREATININE [2] of 0.53 mg/dL. For the same compound, the GLUCOSE [2] was 163.33 mg/dL, the PHOSPHORUS [2] was 9.53 mg/dL and the POTASSIUM [2] was 6.27 MEQ/L. The “TOTAL BILIRUBIN” value [2] was 0.55 mg/dL, the “TOTAL PROTEIN” value [2] was 6.32 G/DL and the BASOPHIL [3] was 0%. For the same compound, the EOSINOPHIL [3] was 0%, the “ERYTHROCYTE COUNT” value [3] was 6.11 x10E6/uL and the HEMATOCRIT [3] was 38.43%. For the same compound, the “LEUKOCYTE COUNT” value [3] was 11.83 x10E3/uL, the LYMPHOCYTE [3] was 84.67% and the “MEAN CORPUSCULAR HEMOGLOBIN” value [3] was 24.53 pg. For the same compound, the “MEAN CORPUSCULAR HEMOGLOBIN CONCENTRATION” value [3] was 39 G/DL, the “MEAN CORPUSCULAR VOLUME” value [3] was 62.8 fL and the MONOCYTE [3] was 1.67%. The NEUTROPHIL [3] was 13.67%, the “PLATELET COUNT” value [3] was 1383.67 x10E3/uL and the “ALANINE AMINOTRANSFERASE” value [3] was 32.67 u/L. For the same compound, the ALBUMIN [3] was 4 G/DL, the “ALKALINE PHOSPHATASE” value [3] was 373.67 u/L and the “ASPARTATE AMINOTRANSFERASE” value [3] was 53 u/L. For the same compound, the “BLOOD UREA NITROGEN” value [3] was 15.67 mg/dL, the CHLORIDE [3] was 99.33 MEQ/L and the CHOLESTEROL [3] was 78 mg/dL. The CREATININE [3] was 0.5 mg/dL, the GLUCOSE [3] was 162 mg/dL and the PHOSPHORUS [3] was 11 mg/dL. The POTASSIUM [3] was 5.93 MEQ/L, the “TOTAL BILIRUBIN” value [3] was 0.33 mg/dL and the “TOTAL PROTEIN” value [3] was 6.6 G/DL. For the same compound, the BASOPHIL [4] was 0%, the EOSINOPHIL [4] was 0.33% and the “ERYTHROCYTE COUNT” value [4] was 6.65 x10E6/uL. For the same compound, the HEMATOCRIT [4] was 39.33%, the “LEUKOCYTE COUNT” value [4] was 11.3 x10E3/uL and the LYMPHOCYTE [4] was 91%. For the same compound, the “MEAN CORPUSCULAR HEMOGLOBIN” value [4] was 23.1 pg, the “MEAN CORPUSCULAR HEMOGLOBIN CONCENTRATION” value [4] was 39.1 G/DL and the “MEAN CORPUSCULAR VOLUME” value [4] was 59.13 fL. For the same compound, the MONOCYTE [4] was 0.67%, the NEUTROPHIL [4] was 8% and the “PLATELET COUNT” value [4] was 1162.33 x10E3/uL. The “ALANINE AMINOTRANSFERASE” value [4] was 35 u/L, the ALBUMIN [4] was 3.83 G/DL and the “ALKALINE PHOSPHATASE” value [4] was 381 u/L. For the same compound, the “ASPARTATE AMINOTRANSFERASE” value [4] was 55 u/L, the “BLOOD UREA NITROGEN” value [4] was 13.67 mg/dL and the CHLORIDE [4] was 97.67 MEQ/L. It also gave a CHOLESTEROL [4] of 67.67 mg/dL, a CREATININE [4] of 0.57 mg/dL and a GLUCOSE [4] of 169 mg/dL. For the same compound, the PHOSPHORUS [4] was 12.13 mg/dL, the POTASSIUM [4] was 6.2 MEQ/L and the “TOTAL BILIRUBIN” value [4] was 0.43 mg/dL. The “TOTAL PROTEIN” value [4] was 6.3 G/DL, the BASOPHIL [5] was 0% and the EOSINOPHIL [5] was 0.33%. The “ERYTHROCYTE COUNT” value [5] was 6.76 x10E6/uL, the HEMATOCRIT [5] was 40.83% and the LYMPHOCYTE [5] was 90%. For the same compound, the “MEAN CORPUSCULAR HEMOGLOBIN” value [5] was 24.27 pg, the “MEAN CORPUSCULAR HEMOGLOBIN CONCENTRATION” value [5] was 40.07 G/DL and the “MEAN CORPUSCULAR VOLUME” value [5] was 60.57 fL. The MONOCYTE [5] was 1%, the NEUTROPHIL [5] was 8.67% and the “PLATELET COUNT” value [5] was 1353.67 x10E3/uL. The “ALANINE AMINOTRANSFERASE” value [5] was 23.67 u/L, the ALBUMIN [5] was 3.93 G/DL and the “ALKALINE PHOSPHATASE” value [5] was 317 u/L. For the same compound, the “ASPARTATE AMINOTRANSFERASE” value [5] was 55.67 u/L, the “BLOOD UREA NITROGEN” value [5] was 14.67 mg/dL and the CHLORIDE [5] was 97.67 MEQ/L. The CHOLESTEROL [5] was 88.33 mg/dL, the CREATININE [5] was 0.63 mg/dL and the GLUCOSE [5] was 135.67 mg/dL. The POTASSIUM [5] was 6.83 MEQ/L, the “TOTAL BILIRUBIN” value [5] was 0.47 mg/dL and the BASOPHIL [6] was 0%. For the same compound, the EOSINOPHIL [6] was 0%, the “ERYTHROCYTE COUNT” value [6] was 7.1 x10E6/uL and the HEMATOCRIT [6] was 41.93%. The “LEUKOCYTE COUNT” value [6] was 12.47 x10E3/uL, the LYMPHOCYTE [6] was 88.67% and the “MEAN CORPUSCULAR HEMOGLOBIN” value [6] was 23.53 pg. The “MEAN CORPUSCULAR HEMOGLOBIN CONCENTRATION” value [6] was 39.7 G/DL, the “MEAN CORPUSCULAR VOLUME” value [6] was 59.33 fL and the MONOCYTE [6] was 0.33%. For the same compound, the NEUTROPHIL [6] was 11%, the “PLATELET COUNT” value [6] was 1164.33 x10E3/uL and the “ALANINE AMINOTRANSFERASE” value [6] was 37 u/L. For the same compound, the ALBUMIN [6] was 3.8 G/DL, the “ALKALINE PHOSPHATASE” value [6] was 263.33 u/L and the “ASPARTATE AMINOTRANSFERASE” value [6] was 65.67 u/L. For the same compound, the “BLOOD UREA NITROGEN” value [6] was 13.67 mg/dL, the CHLORIDE [6] was 98.33 MEQ/L and the CHOLESTEROL [6] was 79.67 mg/dL. The CREATININE [6] was 0.6 mg/dL, the GLUCOSE [6] was 142.33 mg/dL and the PHOSPHORUS [6] was 12.27 mg/dL. The POTASSIUM [6] was 6.23 MEQ/L, the “TOTAL BILIRUBIN” value [6] was 0.4 mg/dL and the “TOTAL PROTEIN” value [6] was 6.3 G/DL.
